Patent US9328324B2, “System, method and devices for tissue-based diagnosis” (The Regents of the University of California, priority 2009, dated 2016)

assay: Preservation of bioactivity of solubilized tissue constituents under ultrasonic energy exposure; settings: 1% w/v in LPM

| Structure (SMILES) | preservation of bioactivity of solubilized proteins and nucleic acids |
| --- | --- |
| CCCCCCCCCCCC(=O)N(C)CC(=O)O [NLS, N-lauroyl sarcosine] | complete preservation |
| CCCCCCCCCC[N+](C)(C)CCCS(=O)(=O)[O-] [DPS, 3-(decyldimethylammonio) propane sulfonate] | complete preservation |
| CCCCCCCCCCCCOCCOCCOCCOCCO [Brij 30, polyethylene glycol dodecyl ether] | complete preservation |
